Assay results published in patent publication US4376785A, “Cyclopropanecarboxylates and a low fish toxic insecticide and/or acaricide containing them” (priority 1980, dated 1983).
Like-named read-outs stand apart in the source and are kept apart here.

Legend:
[1] = system: green rice leafhopper (Nephotettix cincticeps); experiment: Residual effect test, Text example 5; format: in vivo; details: 20 cc per pot, 24 hours
Description: The emulsifiable concentrate of each of the present compounds (5) and (11) prepared in Preparation example 1 was diluted with water so that the conentration of active ingredient was 400 ppm. Thereafter, 20 cc of the dilute solution was sprayed on rice plants grown in a 1/10,000 are Wagner's pot. The rice plants were air-dried and covered with a wire-screen cage, and 15 female adults of green rice leafhopper (Nephotettix cincticeps) were liberated therein. After 24 hours, the dead and alive were examined to obtain mortality. In order to examine the residual effect, the pot was then left as it was for 7 days, and the test insects were liberated in the same manner as above. After 24 hours, the mortality was examined. The experiment was carried out in a greenhouse and the number of replications was three.

[2] = system: green rice leafhopper (Nephotettix cincticeps), R-strain; experiment: Insecticidal activity against green rice leafhopper, sprayed rice plants, Test example 1; format: in vivo; details: green rice leafhopper female adults, spray on rice plant, 26° C., 24 hours
Description: The emulsifiable concentrates of the present compounds and reference compounds prepared in Preparation example 1 were each formulated into test solutions having four different concentrations of active ingredient between 500 ppm and 0.5 ppm. Each test solution was sprayed on a rice plant in a 180-ml plastic cup which had elapsed one month after sowing, at a rate of 15 ml/2 cups by means of a turn table. After air-drying, the rice plate was covered with a wire-screen cage, and 15 female adults of green rice leafhopper (Nephotettix cincticeps) (a strain resistant to carbamates and organo-phosphates, hereinafter referred to as R-strain) were liberated therein. The plant was placed in an artificial climate chamber kept at 26° C. After 24 hours, the dead and alive were examined. The median lethal concentratin [LC50 (ppm)] was calculated from the mortality determined by 3 replications. […]

[3] = system: carmine mites (Tetranychus cinnabarinus); experiment: Damage to rice plants by carmine mites, Test example 4; format: in vivo; details: 500 ppm spray, after 10 days
Description: The emulsifiable concentrate of each of the present compounds (3), (5), (9) and (11) prepared in Preparation example 1 was diluted with water so that the concentration of the active ingredient was 500 ppm. The dilute liquor was thoroughly sprayed on rice plants (grown in a 1/10,000 are Waner's pot) on which carmine mites (Tetranychus cinnabarinus) in all stages were made parasitic.

[4] = system: housefly (Musca domestica); experiment: Housefly mortality, treated filter paper with bait, Test example 7; format: in vivo; details: 0.7 ml on filter paper, housefly female adults, 48 hours
Description: The emulsifiable concentrate obtained in preparation Example 1 was diluted 200 times with water (corresponding to 500 ppm of the active ingredient). On the bottom a polyethylene cup of 5.5 cm in diameter was placed a piece of filter paper of the same size, and 0.7 ml of the above dilute liquor was dropped on the filter paper. Sucrose (30 mg) was placed on the paper as bait. Thereafter, 10 housefly female adults (Musca domestica) were liberated in the cup which was then covered with a lid. After 48 hours, the dead and alive were counted to obtain mortality (4 replications).

[5] = system: green rice leafhopper (Nephotettix cincticeps); experiment: Simulated paddy field box test, green rice leafhopper, Test example 6; format: in vivo; details: wettable powder, 100 ppm, 100 liter/10 are, after 48 hours
Description: (§1) The wettable powder of each of the present compounds (1), (3), (5), (6) and (11) prepared in Preparation example 4 was diluted with water so that the concentration of active ingredient was 100 ppm. Soil was placed in a plastic box [5 m×5 m×2 m (deep)] to a level of 50 cm from the bottom, and rice plants about 50 cm high were transplanted at invervals of 50 cm. Water was then placed in the box so that water depth was 5 cm, and 20 killifishes (Oryzias latipes) were liberated therein. Thereafter, the above dilute solution was sprayed on the box at a rate of 100 liter/10 are. The solution fell on the rice plants as well as on the water surface.
(§2) One hour after treatment, 100 female adults of green rice leafhopper (Nephotettix cincticeps) were liberated in the box which was immediately covered with a net.

[6] = system: killifishes (Oryzias latipes); experiment: Simulated paddy field box test, killifish survival, Test example 6; format: in vivo; details: wettable powder, 100 ppm, 100 liter/10 are, water depth 5 cm, after 48 hours
Description: as §1, §2

[7] = system: yellow fever mosquito (Aedes aegypti); format: in vivo; details: 50 mg of granules (Preparation example 6) in 100 ml water, full grown larvae, after 24 hours
Description: Fifty milligrams of each of the granules of the present compounds (5) and (11) obtained in Preparation example 6 was placed in a 100-ml beaker containing 100 ml of distilled water, and 30 full grown larvae of yellow fever mosquito (Aedes aegypti) were liberated therein. After 24 hours, 100% of the larvae could be killed.

[8] = Toxicity to killifish (TLm48), Test example 1; format: in vivo, Oryzias latipes; details: for selectivity ratio: in vivo, TLm48 divided by concentration in water at green rice leafhopper LC50, read-out: Safety coefficient to fishes (a)/(b); for LC50 at 48 h: water, killifish, medium tolerance limit, read-out: Toxicity to fishes TLm48 (a)
Description: (§3) Toxicity to killifish (Oryzias latipes) was tested accordig to the test method for toxicity to fishes described in Notification B No. 2735 of the Ministry of Agriculture and Forestry (Nov. 25, 1965). Namely, each of the present compounds (1), (2), (4), (5), (6), (8), (9), (11) and reference compounds was dissolved or suspended in "Tween 80" and diluted successively with dechlorinated tap water. Ten killifish (0.2-0.3 g per fish) were released in a 10-liter glass vessel containing 5 liters of each preparation.
(§4) In order to make it clearer that the present compounds have a low toxicity to fishes as well as a high insecticidal activity, a safety coefficient to fishes was calculated from the test results of toxicity to fishes and insecticidal activity. [formula]
(§5) A detailed explanation will be given to a method of how to calculate the safety coefficient. In the case of green rice leafhoppers, calculation was based on the concentration of active ingredient in water obtained by applying a test solution containing the active ingredient in an amount corresponding to LC50 (ppm) to a flooded paddy field 5 cm deep at a rate of 100 liter/10 are, provided that all the active ingredient applied entered the water.
(§6) For example, the safety coefficient to fishes of the present compound (1) is calculated as follows: The quantity of water in a flooded paddy field 5 cm deep and 10 are in area is 50 tons; when a test solution containing the active ingredient in an amount corresponding to LC50 (ppm) is added to the paddy field at a rate of 100 liter/10 are the concentration of the active ingredient in water (hereinafter referred to as (b)) is 0.008 pp; as the toxicity to fishes [TLm48 (ppm)] (hereinafter referred to as (a)) is >2.0 ppm, said coefficient can be calculated by dividing (a) by (b). In this case, the coefficient is >250, which means that the present compound (1) has a safety higher than 250-fold.

[9] = system: CSMA strain housefly (Musca domestica); experiment: Topical application to housefly adults, Test example 8; format: in vivo; details: topical to ventral thorax, 0.5 μl/adult, female adults, 24 hours
Description: The present compounds as below and reference compounds were each diluted with acetone into test solutions having four different concentrations of active ingredient. Each test solution was topically applied to the ventral throrax of CSMA strain housefly female adults (Musca domestica), at a rate of 0.5 μl/adult by means of a microapplicator.
The adults were then liberated in a polyethylene cup and fed with milk, sugar and water. After 24 hours, the dead and alive were observed. The median lethal dosage (LD50 μg/adult) was obtained from the morality (3 replications).

[10] = system: killifish (Oryzias latipes); experiment: Toxicity to killifish (TLm48), Test example 1; format: in vivo; details: killifish, medium tolerance limit, 48 hours
Description: as §3, §4, §5, §6

Structure (SMILES)	mortality at 400 ppm ([1]; insects liberated 7 days after treatment, read-out: Mortality, effect 7 days after treatment) [%]	mortality at 400 ppm ([1]; read-out: Mortality, effect immediately after treatment) [%]	LC50 [2] [ppm]	damage to rice plants by carmine mites [3]	mortality at 500 ppm [4] [%]	green rice leafhoppers alive [5]	killifishes alive [6]	larvae killed [7] [%]	selectivity ratio [8]	LC50 at 48 h [8] [µg/mL]	LD50 [9] [μg/adult]	Toxicity to fishes TLm48 (a) [10] [ppm]
CC1(C)C(C(=O)OC(C#N)c2ccc(F)c(Oc3ccc(Cl)cc3)c2)C1C(Br)C(Cl)(Cl)Br (stereo not drawn) [compound (5), 3-(4-Chlorophenoxy)-4-fluoro-α-cyanobenzyl 2,2-dimethyl-3-(1,2-dibromo-2,2-dichloroethyl)cyclopropanecarboxylate]	100	100	4.8	the spreading of the damage could be prevented	100	no alive green rice leafhoppers were found	all of the killifishes were alive	100	> 100	> 1	0.033	–
CC1(C)[C@H](C(=O)OC(C#N)c2ccc(F)c(Oc3ccc(Br)cc3)c2)[C@H]1C(Br)C(Cl)(Cl)Br (relative stereo) [compound (1), 3-(4-Bromophenoxy)-4-fluoro-α-cyanobenzyl dl-trans-2,2-dimethyl-3-(1,2-dibromo-2,2-dichloroethyl)cyclopropanecarboxylate]	–	–	3.8	–	–	no alive green rice leafhoppers were found	all of the killifishes were alive	–	> 250	> 2	–	> 2.0
